The results in this text go back to patent US9359196B2, “Antiproliferative compositions comprising curcumin analogs and methods of producing and using same” (The Board of Regents of the University of Oklahoma, priority 2009, dated 2016).

Data set [1] concerns Human lung adenocarcinoma cell line NCI-H441. Description: In vitro anti-proliferative activity in H441 cells (hexosaminidase), Example 2. It counts as cell-based. The method, then:
Human lung adenocarcinoma cell line NCI-H441 (ATCC # HTB-174) and normal lung fibroblasts LL-24 (ATCC #CCL-151) were obtained from American Type Culture Collection (Manassas, Va.). The cells were maintained at 37° C. with 5% CO2 in RPMI 1640 medium (Invitrogen, Carlsbad, Calif.). The medium was supplemented with 10% heat-inactivated fetal bovine serum and 50 μg/ml of gentamicin (GIBCO Laboratories, Grand Island, N.Y.). For cell proliferation assay, the cells were seeded in 96-well flat-bottom tissue culture plates at a density of 0.5−1×10^4 cells per well. The cells were allowed to adhere and grow overnight, followed by treatment with CLEFMA or CLEFMA-liposomes. The concentration of CLEFMA was maintained in the range of 0.1-25 μM in 100 μl of RPMI 1640 medium. For comparison, the cells were also treated with 1 and 10 μM natural curcumin and EF24. EF24 is a potent synthetic curcuminoid and a close analog of CLEFMA [Adams et al., 2004]. All solutions of plain drugs were made in dimethylsulfoxide (DMSO). The concentration of DMSO in the treatment medium was maintained at 0.1%. The control wells received equivalent amounts of DMSO or phospholipid-matched control liposomes. Inhibition of cell proliferation was determined by measuring a decrease in hexosaminidase activity as described by Landegren [Landegren, 1984]. Para-nitrophenol-N-acetyl-beta-D-glucosaminide (60 μl per well) was used as the substrate for the hexosaminidase enzyme. The results of hexosaminidase assay were also confirmed by visualization of cultured cells under a microscope.

A short description of the next data set: Solubility in solvents. It counts as physicochemical. From the text:
The goal was to synthesize compounds that can be inserted into lipid carriers, such as liposomes. […] The retention of activity by compounds with 12-14 carbon unsaturated a chain modification is encouraging, for it enables the incorporation of these compounds in a lipid carrier system. […] This appears to be the first report where piperidinyl nitrogen of chalcones has been modified with lipid chains.

Data set [2] relates to lung adenocarcinoma cell line H441. In words: Cell proliferation (hexosaminidase assay) in lung adenocarcinoma H441 cells, Example 1. It counts as cell-based, human. The following applies: Homo sapiens, NCI-H441, 24 h of treatment, 1-100 μM tested, fitted plot, read-out: IC50 value. As to the method:
Cell Proliferation Studies: In order to assess the anti-proliferative activity of the synthesized compounds, an in vitro cell culture system of lung adenocarcinoma cell line H441 was used. The cell detachment and anti-proliferative activity was measured as a decrease in hexosaminidase enzyme activity associated with remainder of the adhered cells. [Landegren, 1984] […] The concentration versus cell proliferation plots were analyzed by an exponential fit (Table 1). The results were compared with the anti-proliferative activity of compound 1.
Cell Culture and drug treatment: Human lung adenocarcinoma cell line NCI-H441 (ATCC Number: HTB-174) was obtained from the American Type Culture Collection (Manassas, Va.). H441 cells were maintained at 37° C. with 5% CO2 in McCoy's 5A Medium (Invitrogen, Carlsbad, Calif.) supplemented with 5% heat-inactivated fetal bovine serum (FBS). All media contained gentamicin at 50 μg/ml (GIBCO Laboratories, Grand Island, N.Y.). Other cells lines (PANC-1, MiaPaCa-2 and PC-3) were also similarly maintained, except that the cell culture medium was RPMI 1640 instead of McCoy's.
To evaluate the anti-proliferative activity of synthesized bis(2-fluorobenzylidene)-4-piperidone and its derivatives, the cells were seeded in 96-well flat-bottom tissue culture plates at a density of 10×10^3 cells per well. The cells were allowed to attach and grow overnight. The test compounds were solubilized in dimethyl sulfoxide (DMSO), filtered through 0.2 μm nylon filter and added to cells at 1, 10, 25 and 100 μM concentrations in culture medium supplemented with 5% FBS. The DMSO concentration was maintained at 0.1% per well. Control wells received equivalent volume of DMSO without any test compounds. The cells were allowed to remain in the treatment medium for 24, 48 and 72 hours.
Cell Proliferation: The total number of cells after the treatment period was estimated by the hexosaminidase assay. [Landegren, 1984] Briefly, the medium was removed and hexosaminidase substrate solution in citrate buffer pH 5 (7.5 mM), […] (Calbiochem, San Diego, Calif.) was added at 60 μl per well. The plate was incubated at 37° C. in 100% humidity for 30 minutes, before stopping the reaction with 90 μl of 50 mM glycine containing 5 mM of EDTA (pH 10.4). The absorbance was measured at 405 nm. The experiments were conducted in triplicate, and repeated at least twice. The data were analyzed as percent of control, where the control wells were treated with equivalent amounts of DMSO alone, and the analyzed data was presented as average±standard error of mean. The differences among mean values were deemed significant at p<0.05.
For IC50 calculations, a plot between the drug concentration and hexosaminidase activity was generated and the data was fitted either linearly or exponentially. The best fit was used for further processing of data.

In data set [3] the test system is H441 cells. Description: Transmission electron microscopy of treated H441 cells (autophagy). It is filed as cell-based, human. The note with it: 24 hour treatment, 1 and 10 μM. As to the method:
Transmission Electron Microscopy (TEM): TEM was performed after 24 hour treatment with 1 and 10 μM of compound 1 or compound 29 (CLEFMA). The cells were fixed in 0.1M sodium cacodylate buffer containing 4% paraformaldehyde (PFA) and 2% glutaraldehyde for 4 h at room temperature. The samples were post-fixed in 1% osmium tetroxide for 1.5 h and washed with 0.1M sodium cacodylate buffer, followed by dehydration in an ethanol series of 50%, 60%, 75%, 85%, and 95% for 15 minutes each. The cells were washed twice in 100% Ethanol and passed through a series of epon-araldite (6.2 g epon+4.4 g araldite+12.4 g of dodecenyl succinic anhydride+0.8 g N,N-dimethylbenzylamine) solution in ethanol, [Matsko et al., 2005] before embedding the cells in epon-araldite resin. Finally, 100 nm sections were cut using a microtome, and the sections were placed on glow-discharged 300 mesh Copper grids. The ultrasections were stained with Sato's lead (mixture of calcinated lead citrate, lead nitrate, lead acetate and sodium citrate), and observed by a Hitachi H-7600 Transmission Electron Microscope at 2500× (Oklahoma Medical Research Foundation Imaging and core facility, Oklahoma City).

For data set [4], the system named is H441 cells. In words: Monodansylcadaverine fluorescence microscopy of autophagosomes in H441 cells. It is filed as cell-based, human. As to the method: Monodansylcadaverine (MDC) is an autofluorescent marker for autophagic vacuoles. [Biederbick et al., 1995] It was found the emergence of intense MDC-fluorescence in the treated cells. The fluorescence vanished when the cells were treated with 3-methyl adenine (3-MA). […] [Seglen et al., 1982]

On to `N[C@@H](CCC(=O)N[C@@H](CS)C(=O)NCC(=O)O)C(=O)O` [Glutathione, glutathione], for which, in data set [1], the “anti-proliferative activity in H441 cells” value is recorded as “not anti-proliferative by itself”.

As for `CCCCCCCCCCCCCCCCCC(=O)N1CC(=Cc2ccccc2F)C(=O)C(=Cc2ccccc2F)C1` [Compound 25, 3,5-Bis-(2-fluorobenzylidene)-1-octadecanoyl-4-piperidone], the melting point (in general, the temperature, or range, at which the solid turns liquid) lay in the range of 70 to 71 °C. Moreover, the solubility in solvents entry in “Solubility in solvents” was “insoluble in all common solvents except chloroform”.

On to `O=C1C(=Cc2ccccc2F)CNCC1=Cc1ccccc1F` [Compound 1, 3,5-Bis(2-fluorobenzylidene)-4-piperidone, reference compound], for which the concentration for half-maximal inhibition (IC50) (usually the concentration at which inhibition is half-maximal) in data set [2] was 44 µM. In addition, in the data set with H441 cells [3], the “change in cellular architecture (TEM)” value is on record as “induced a substantial change in cellular architecture”. Also, the “autophagosome formation (MDC fluorescence)” value with H441 cells [4] was “appearance of intracellular vacuoles or autophagosomes”.
